What was measured:
[1] = photochromic response rates on an optical bench (test squares); type: physicochemical; details: for ΔOD @ SATURATION: UV exposure continued for 20 minutes, same test squares; for ΔOD @ SATURATION / ΔOD/MIN SENSITIVITY: 75° F. (23.9° C.); for ΔOD/MIN SENSITIVITY: measured over first five seconds of UV exposure, expressed per minute, 1.5 x 10^-3 molal in BPA 2EO DMA / poly(ethyleneglycol) 600 dimethacrylate polymer; for Bleach Rate (T1/2): time for absorbance of activated form to reach one half the highest absorbance, room temperature (75° F., 23.9° C.), after removal of activating light
Description: Testing was done with the photochromic naphthopyrans of the Examples incorporated into polymeric samples by the following method. The quantity of naphthopyran calculated to yield a 1.5 time 10^-3 molal solution was added to a flask containing 50 grams of a monomer blend of 4 parts ethoxylated bisphenol A dimethacrylate (BPA 2EO DMA), 1 part poly(ethyleneglycol) 600 dimethacrylate, and 0.033 weight percent 2,2'-azobis (2-methyl propionitrile) (AIBN). The naphthopyran was dissolved into the monomer blend by stirring and gentle heating, if necessary. After a clear solution was obtained, it was poured into a flat sheet mold having the interior dimensions of 2.2 mm×6 inches (15.24 cm)×6 inches (15.24 cm). The mold was sealed and placed in a horizontal air flow, programmable oven set to increase the temperature from 40° C. to 95° C. over a 5 hour interval, hold the temperature at 95° C. for 3 hours and then lower it to 60° C. for at least 2 hours before the end of the curing cycle. After the mold was opened, the polymer sheet was cut using a diamond blade saw into 2 inch (5.1 centimeters) test squares.
The photochromic test squares prepared in Part A were tested for photochromic response rates on an optical bench. […] The bench was fitted with a 150 watt Xenon arc lamp, a remote controlled shutter, a copper sulfate bath acting as a heat sink for the arc lamp, a Schott WG-320 nm cut-off filter which removes short wavelength radiation; neutral density filter(s) and a sample holder in which the square to be tested was inserted. A collimated beam of light from a tungsten lamp was passed through the square at a small angle normal to the square. After passing through the square, the light from the tungsten lamp was directed through a photopic filter attached to a detector. The photopic filter passes wavelengths such that the detector mimics the response of the human eye. The output signals from the detector(s) were processed by a radiometer.
Change in optical density (ΔOD) was determined by inserting a test square in the bleached state into the sample holder, adjusting the transmittance scale to 100%, opening the shutter from the Xenon lamp to provide ultraviolet radiation to change the test square from the bleached state to an activated (i.e., darkened) state, measuring the transmittance in the activated state; and calculating the change in optical density according to the formula Δ OD=log(100/%Ta) where %Ta is the percent transmittance in the activated state and the logarithm is to the base 10.
(§1) The Δ OD/Min, which represents the sensitivity of the photochromic compound's response to UV light, was measured over the first five (5) seconds of UV exposure, then expressed on a per minute basis. The saturation optical density (OD) was taken under identical conditions as the Δ OD/Min, except UV exposure was continued for 20 minutes for the examples in Table 1. The lambda max reported in Table 1 is the wavelength in the visible spectrum at which the maximum absorption of the activated (colored) form of the photochromic compound in a diethylene glycol bis(allyl carbonate) composition occurs.

[2] = lambda max of the activated (colored) form in the visible spectrum; type: physicochemical; details: activated form in a diethylene glycol bis(allyl carbonate) composition
Description: as §1, with “occurs. The Bleach Rate (T 1/2) is the time interval in seconds for the absorbance of the activated form of the naphthopyran in the test squares to reach one half the highest absorbance at room temperature (75° F., 23.9° C.) after removal of the source of activating light.” for “occurs.”

| SMILES | ΔOD @ SATURATION [1] | ΔOD/MIN SENSITIVITY [1] | Bleach Rate (T1/2) [1] | LAMBDA MAX (VISIBLE) [2] |
| --- | --- | --- | --- | --- |
| COc1ccc(C2(c3ccc(OC)cc3)C=Cc3c(-c4cccn4C)c(OC(C)=O)c4ccccc4c3O2)cc1 [Example 1, 2,2-bis(4-methoxyphenyl)-5-(N-methylpyrrol-2-yl)-6-acetoxy-2H-naphtho[1,2-b]pyran] | 0.25 | 0.16 ΔOD/MIN | 1.23 min | 513 nm |
| COc1ccc(C2(c3ccc(OC)cc3)C=Cc3c(-c4ccc(OC)cc4OC)c(OC(C)=O)c4ccccc4c3O2)cc1 [Example 2, 2,2-bis(4-methoxyphenyl)-5-(2,4-dimethoxyphenyl)-6-acetoxy-2H-naphtho[1,2-b]pyran] | 0.55 | 0.15 ΔOD/MIN | 4.13 min | 511 nm |
| COc1ccc(C2(c3ccc(OC)cc3)C=Cc3c(Sc4ccccc4)c(O)c4ccccc4c3O2)cc1 [Example 3, 2,2-bis(4-methoxyphenyl)-5-phenylthio-6-hydroxy-2H-naphtho[1,2-b]pyran] | 1.76 | 0.34 ΔOD/MIN | > 10 min | 516 nm |
| COc1ccc(C2(c3ccc(OC)cc3)C=Cc3c(Sc4ccccc4)c(OC(C)=O)c4ccccc4c3O2)cc1 [Example 4, 2,2-bis(4-methoxyphenyl)-5-phenylthio-6-acetoxy-2H-naphtho[1,2-b]pyran] | 0.23 | 0.22 ΔOD/MIN | 0.7 min | 516 nm |
| COc1ccc(C2(c3ccc(OC)cc3)C=Cc3c(Cl)c(OC(C)=O)c4ccccc4c3O2)cc1 [Example 5, 2,2-bis(4-methoxyphenyl)-5-chloro-6-acetoxy-2H-naphtho[1,2-b]pyran] | 0.07 | 0.08 ΔOD/MIN | 0.9 min | 462 nm |
| COc1ccc(C2(c3ccc(OC)cc3)C=Cc3c(C)c(OC(C)=O)c4ccccc4c3O2)cc1 [Example 6, 2,2-bis(4-methoxyphenyl)-5-methyl-6-acetoxy-2H-naphtho[1,2-b]pyran] | 0.37 | 0.14 ΔOD/MIN | 2 min | 506 nm |
| Oc1c(Sc2ccccc2)c2c(c3ccccc13)OC1(C=C2)C2CC3CC(C2)CC1C3 (centres unmarked) [Example 7, 2,2'-spiroadamantylene-5-phenylthio-6-hydroxy-2H-naphtho[1,2-b]pyran] | 0.47 | 0.15 ΔOD/MIN | 3.08 min | 462 nm |
| CC(=O)Oc1c(Sc2ccccc2)c2c(c3ccccc13)OC1(C=C2)C2CC3CC(C2)CC1C3 (centres unmarked) [Example 8, 2,2'-spiroadamantylene-5-phenylthio-6-acetoxy-2H-naphtho[1,2-b]pyran] | 0.04 | 0.10 ΔOD/MIN | 1.13 min | 459 nm |
| COc1c(C)c2c(c3ccccc13)OC1(C=C2)C2CC3CC(C2)CC1C3 (centres unmarked) [Example 9, 2,2'-spiroadamantylene-5-methyl-6-methoxy-2H-naphtho[1,2-b]pyran] | 0.17 | 0.12 ΔOD/MIN | 2.55 min | 462 nm |
| COc1ccc(C2(c3ccc(OC)cc3)C=Cc3c(C(O)(c4ccccc4)c4ccccc4)c(O)c4ccccc4c3O2)cc1 [Example 10, 2,2-bis (4-methoxyphenyl)-5-diphenylmethylol-6-hydroxy-2H-naphtho[1,2-b]pyran] | 0.32 | 0.05 ΔOD/MIN | > 13.3 min | 482 nm |
| COc1ccc(C2(c3ccc(OC)cc3)C=Cc3c(C(O)(c4ccccc4)c4ccccc4)c(OC)c4ccccc4c3O2)cc1 [Example 11, 2,2-bis(4-methoxyphenyl)-5-diphenylmethylol-6-methoxy-[2H]-naphtho[1,2-b]pyran] | 0.19 | 0.10 ΔOD/MIN | 1.42 min | 467 nm |

Source: patent US5658501A, “Substituted naphthopyrans” (Transitions Optical, Inc., priority 1995, dated 1997)
